Measurements: patent publication US8617872B2, “Compositions for culturing spirochetes” (priority 2000, dated 2013)

Experiments:
Assay type in all cases: cell-based
Treponema isolate = assay: Antimicrobial susceptibility test (MICROSCAN plates) of a patient's Treponema isolate; conditions: Treponema infected patient's isolate; MICROSCAN plates, 35° C., 16-20 hours
Description: For susceptibility testing, the organisms harvested could be assayed using any suitable susceptibility assay (See, Example 7). In some embodiments of the present invention, MICROSCAN antibiotic susceptibility plates were inoculated and incubated. Following incubations, plates were scanned for growth and respective sensitivity reaction. […] For the results to be considered reliable, the no growth of organisms was accepted in the negative control well, while the positive control well had to have sufficient growth to be read. In some embodiments of the present invention, to confirm the presence or absence of growing spirochetes in the growth well, aliquots from the growth well were reinoculated with fresh growth media and after an incubation time (e.g., 7-10 days) the presence of the organisms was confirmed (e.g., by phase contrast microscopy or direct fluorescent antibody staining).
(§1) This example describes the preparation of a pellet used for antimicrobial susceptibility testing of a culture sample. The procedure begins with a culture (e.g., prepared in the manner described in Example 2), where serum from a patient is inoculated in GSI-1 media and allowed to grow. In order to form pellet, an aliquot of this culture sample is placed in a microcentrifuge tube along with 10% SDS solution, and centrifuged at 14,000 g to disrupt the spirochetes and maximize the number of available eptiopic sites. The disrupted spirochetes were then cultured in an alternative growth medium made up of one part GSI-1 medium, one part 6.5% lactalbumin hydrolysate, one part 2% brain heart infusion, one part 10% pluronic fluid, and one part of the isolated (disrupted) spirochetes. This inoculated alternative growth medium was then allowed to incubate in the closed micro centrifuge tube until a distinctive pellet was observed (typically 7-14 days).
This example describes an antimicrobial susceptibility test performed for a human patient. The patient had previously been testing using GSI-1 medium (e.g., as described in Example 2) for the presence of any spirochetes. […] This culture sample was then transferred to a microcentrifuge tube, and a pellet for antimicrobial susceptibility testing was prepared as described in Example 6.
(§2) Following the observation of pellet formation, the tube was vortexed and incubated at 35° C. until a MacFarlane standard of between 8 to 12% turbidity was achieved. MICROSCAN antibiotic susceptibility microtiter plates were then inoculated with (e.g., 110 μl of) inoculum and allowed to incubate at 35° C. for 16-20 hours. The microtiter plates were then scanned for growth and respective sensitivity reaction (both the control well and the growth well). Table 2 below lists the various antimicrobials tested with this sample and whether growth of the organism was inhibited (susceptible) or whether the growth of the organism was not inhibited (resistant).

Leptospira [1] = assay: Susceptibility testing of Leptospira isolated from a patient with symptoms of rheumatoid arthritis; conditions: for Antibiotic Susceptibility Results, SERUM: Leptospira culture from serum of rheumatoid arthritis patient; for Antibiotic Susceptibility Results, URINE: Leptospira culture from urine of rheumatoid arthritis patient
Text: as §1
Following the observation of pellet formation, the tube was vortexed and incubated at 35° C. until a MacFarlane standard of between 8 to 12% turbidity was achieved. MICROSCAN antibiotic susceptibility microtiter plates were then inoculated with (e.g., 110 μl of) inoculum and allowed to incubate at 35° C. for 16-20 hours. The microtiter plates were then scanned for growth and respective sensitivity reaction (both the control well and the growth well).
This Example describes the diagnosis and treatment of a human patient with symptoms of rheumatoid arthritis. In particular, serum and urine samples from this patient were initially cultured on GSI-1 (e.g., as described in Example 2), and screened for the presence of spirochetes (e.g., as described in Example 3). […] These cultures were then used to produce pellets for antimicrobial susceptibility testing (e.g., as described in Example 6). The antimicrobial susceptibility tests were then carried out on each sample (e.g., as described in Example 7) with the antimicrobials listed below in Table 5.

E. coli = assay: Antibiotic susceptibility test (MICROSCAN or disc diffusion), control organism E. coli; conditions: total isolates 1
Tatumella = assay: Antibiotic susceptibility test (MICROSCAN or disc diffusion), control organism Tatumella; conditions: total isolates 2
Text: as §1, §2
(§3) This Example describes the results for susceptibility tests that were performed on a large number of patient samples positive for either Borrelia or Leptospira. […] The results presented in Table 3 reveal the varied response of different types of spirochetes to different antibiotics.

Y. entero gp. = assay: Antibiotic susceptibility test (MICROSCAN or disc diffusion), control organism Y. entero gp.; conditions: total isolates 1
Borrelia = assay: Antibiotic susceptibility test (MICROSCAN or disc diffusion) of patient samples positive for Borrelia; conditions: total isolates 519
Text: as §1, §2, §3

Leptospira [2] = assay: Antibiotic susceptibility test (MICROSCAN or disc diffusion) of patient samples positive for Leptospira; conditions: total isolates 276
Text: as §1, §2, §3

Leptospira [3] = assay: Susceptibility testing of Leptospira isolated from a patient with symptoms of multiple sclerosis; conditions: for Antibiotic Susceptibility Results, SERUM: Leptospira culture from serum of multiple sclerosis patient; for Antibiotic Susceptibility Results, URINE: Leptospira culture from urine of multiple sclerosis patient
Description: This example describes the preparation of a pellet used for antimicrobial susceptibility testing of a culture sample. […] In order to form pellet, an aliquot of this culture sample is placed in a microcentrifuge tube along with 10% SDS solution, and centrifuged at 14,000 g to disrupt the spirochetes and maximize the number of available eptiopic sites. […] This inoculated alternative growth medium was then allowed to incubate in the closed micro centrifuge tube until a distinctive pellet was observed (typically 7-14 days).
MICROSCAN antibiotic susceptibility microtiter plates were then inoculated with (e.g., 110 μl of) inoculum and allowed to incubate at 35° C. for 16-20 hours. The microtiter plates were then scanned for growth and respective sensitivity reaction (both the control well and the growth well).

Pseudomonas = assay: Antibiotic susceptibility test (MICROSCAN or disc diffusion), control organism Pseudomonas; conditions: total isolates 1

Compound	RESULT (antibiotic susceptibility) (Treponema isolate)	Antibiotic Susceptibility Results, SERUM (Leptospira [1])	Antibiotic Susceptibility Results, URINE (Leptospira [1])	Antibiotic Susceptibility Results, SERUM (Leptospira [3])	Antibiotic Susceptibility Results, URINE (Leptospira [3])	other results
CC1(C)S[C@@H]2[C@H](NC(=O)[C@H](NC(=O)N3CCN(S(C)(=O)=O)C3=O)c3ccccc3)C(=O)N2[C@H]1C(=O)O [Mezlocillin]	Susceptible	–	–	–	–	–
Penicillin	–	Resistant	Resistant	–	–	–
Trimethoprim Sulfate	–	Susceptible	Susceptible	–	–	–
CO/N=C(\C(=O)N[C@@H]1C(=O)N2C(C(=O)O)=C(COC(N)=O)CS[C@H]12)c1ccco1 [Cefuroxime]	–	Resistant	Resistant	Resistant	Resistant	Antibiotic Susceptibility Test Results, E. coli (E. coli): 100%; Antibiotic Susceptibility Test Results, Tatumella (Tatumella): 0%; Antibiotic Susceptibility Test Results, Y. entero gp. (Y. entero gp.): 100%; Antibiotic Susceptibility Test Results, Borrelia (Borrelia): 59%; Antibiotic Susceptibility Test Results, Leptospira (Leptospira [2]): 59%
Ampicillin/Sulbactam	Susceptible	–	–	–	–	–
Piperacillin/Tazobactam	–	Intermediate	Intermediate	Intermediate	Intermediate	Antibiotic Susceptibility Test Results, Pseudomonas (Pseudomonas): 100%; Antibiotic Susceptibility Test Results, E. coli (E. coli): 100%; Antibiotic Susceptibility Test Results, Tatumella (Tatumella): 100%; Antibiotic Susceptibility Test Results, Y. entero gp. (Y. entero gp.): 100%; Antibiotic Susceptibility Test Results, Borrelia (Borrelia): 88%; Antibiotic Susceptibility Test Results, Leptospira (Leptospira [2]): 86%
CN(C)[C@@H]1C(O)=C(C(N)=O)C(=O)[C@@]2(O)C(O)=C3C(=O)c4c(O)cccc4[C@@](C)(O)[C@H]3C[C@@H]12 [Tetracycline]	Resistant	Resistant	Resistant	Resistant	Resistant	–
Trimethoprim/Sulfamethoxazole	Resistant	–	–	Susceptible	Susceptible	–
CCC[C@@H]1C[C@@H](C(=O)N[C@@H]([C@H]2O[C@H](SC)[C@H](O)[C@@H](O)[C@H]2O)[C@H](C)Cl)N(C)C1 [Clindamycin]	–	Resistant	Resistant	Resistant	Resistant	–
CC1(C)S[C@@H]2[C@H](NC(=O)[C@H](C(=O)O)c3ccsc3)C(=O)N2[C@H]1C(=O)O [Ticarcillin]	Susceptible	–	–	–	–	–
Cc1nnc(SCC2=C(C(=O)O)N3C(=O)[C@@H](NC(=O)Cn4cnnn4)[C@H]3SC2)s1 [Cefazolin]	Resistant	–	–	–	–	–
CC(=O)OCC1=C(C(=O)O)N2C(=O)[C@@H](NC(=O)Cc3cccs3)[C@H]2SC1 [Cephalothin]	Susceptible	–	–	–	–	–
CC1(C)S[C@@H]2[C@H](NC(=O)[C@H](N)c3ccccc3)C(=O)N2[C@H]1C(=O)O [Ampicillin]	Susceptible	Resistant	Resistant	Resistant	Resistant	Antibiotic Susceptibility Test Results, E. coli (E. coli): 100%; Antibiotic Susceptibility Test Results, Tatumella (Tatumella): 100%; Antibiotic Susceptibility Test Results, Y. entero gp. (Y. entero gp.): 100%; Antibiotic Susceptibility Test Results, Borrelia (Borrelia): 61%; Antibiotic Susceptibility Test Results, Leptospira (Leptospira [2]): 54%
CC[C@H]1OC(=O)[C@H](C)[C@@H](O[C@H]2C[C@@](C)(OC)[C@@H](O)[C@H](C)O2)[C@H](C)[C@@H](O[C@@H]2O[C@H](C)C[C@H](N(C)C)[C@H]2O)[C@](C)(O)C[C@@H](C)CN(C)[C@H](C)[C@@H](O)[C@]1(C)O [Azithromycin]	–	Resistant	Resistant	Resistant	Resistant	–
CCN[C@@H]1C[C@H](N)[C@@H](O[C@H]2OC(CN)=CC[C@H]2N)[C@H](O)[C@H]1O[C@H]1OC[C@](C)(O)[C@H](NC)[C@H]1O [Netilmicin]	Resistant	–	–	–	–	–
CO[C@H]1/C=C/O[C@@]2(C)Oc3c(C)c(O)c4c(O)c(c(/C=N/N5CCN(C)CC5)c(O)c4c3C2=O)NC(=O)/C(C)=C\C=C\[C@H](C)[C@H](O)[C@@H](C)[C@@H](O)[C@@H](C)[C@H](OC(C)=O)[C@@H]1C [Rifampin]	–	Resistant	Resistant	Resistant	Resistant	–
CC[C@H]1OC(=O)[C@H](C)[C@@H](O[C@H]2C[C@@](C)(OC)[C@@H](O)[C@H](C)O2)[C@H](C)[C@@H](O[C@@H]2O[C@H](C)C[C@H](N(C)C)[C@H]2O)[C@](C)(O)C[C@@H](C)C(=O)[C@H](C)[C@@H](O)[C@]1(C)O [Erythromycin]	–	Resistant	Resistant	Resistant	Resistant	–
CCn1cc(C(=O)O)c(=O)c2cc(F)c(N3CCNCC3)cc21 [Norfloxacin]	–	–	Susceptible	–	Susceptible	–
CC[C@H]1OC(=O)[C@H](C)[C@@H](O[C@H]2C[C@@](C)(OC)[C@@H](O)[C@H](C)O2)[C@H](C)[C@@H](O[C@@H]2O[C@H](C)C[C@H](N(C)C)[C@H]2O)[C@](C)(OC)C[C@@H](C)C(=O)[C@H](C)[C@@H](O)[C@]1(C)O [Clarithromycin]	–	Resistant	Resistant	Resistant	Resistant	–
